# Article PMC5218480 (PLoS ONE, 2017)
# Tested on: MV-4-11 cells
# Test: Gene expression microarray analysis (Affymetrix PrimeView) and GSEA
# Assay type: cell-based, human
# Design: RFU PODN (11730768_x_at) / Fold change /veh PODN (11730768_x_at) / RFU LINC00158 (11744669_a_at) / Fold change /veh LINC00158 (11744669_a_at) / RFU DUSP10 (11751237_a_at) / Fold change /veh DUSP10 (11751237_a_at) / RFU ID3 (11757404_x_at) / Fold change /veh ID3 (11757404_x_at) / RFU PLEKHG5 (11737974_s_at) / Fold change /veh PLEKHG5 (11737974_s_at) / RFU LRRC4B (11730491_at) / Fold change /veh LRRC4B (11730491_at) / RFU GIMAP4 (11747438_a_at) / Fold change /veh GIMAP4 (11747438_a_at) / RFU KRT8 (11758183_x_at) / Fold change /veh KRT8 (11758183_x_at) / RFU CNN1 (11734310_a_at) / Fold change /veh CNN1 (11734310_a_at) / RFU VPS37D (11726825_at) / Fold change /veh VPS37D (11726825_at) / RFU C10orf10 (11716522_x_at) / Fold change /veh C10orf10 (11716522_x_at) / RFU KIR2DL2 /// KIR2DL4 /// KIR2DL5A /// KIR2DL5B /// KIR2DS1 /// KIR2DS2 /// KIR2DS3 /// KIR2DS4 /// KIR3DL3 /// KIR3DL3 /// KIR3DS1 (11738374_at) / Fold change /veh KIR2DL2 /// KIR2DL4 /// KIR2DL5A /// KIR2DL5B /// KIR2DS1 /// KIR2DS2 /// KIR2DS3 /// KIR2DS4 /// KIR3DL3 /// KIR3DL3 /// KIR3DS1 (11738374_at) / RFU C1QL1 (11718748_at) / Fold change /veh C1QL1 (11718748_at) / RFU TMPRSS4 (11747572_a_at) / Fold change /veh TMPRSS4 (11747572_a_at) / RFU HAMP (11756126_x_at) / Fold change /veh HAMP (11756126_x_at) / RFU RNFT2 (11725882_a_at) / Fold change /veh RNFT2 (11725882_a_at) / RFU NR4A2 (11747474_a_at) / Fold change /veh NR4A2 (11747474_a_at) / RFU ABCC12 (11746883_a_at) / Fold change /veh ABCC12 (11746883_a_at) / RFU TMEM136 (11760407_x_at) / Fold change /veh TMEM136 (11760407_x_at) / RFU CLDN22 /// WWC2 (11732394_at) / Fold change /veh CLDN22 /// WWC2 (11732394_at) / RFU HLA-DPB1 (11760878_x_at) / Fold change /veh HLA-DPB1 (11760878_x_at) / RFU SPINT1 (11716480_a_at) / Fold change /veh SPINT1 (11716480_a_at) / RFU GAP43 (11754022_s_at) / Fold change /veh GAP43 (11754022_s_at) / RFU A4GNT (11735810_at) / Fold change /veh A4GNT (11735810_at) / RFU PRB3 (11715151_x_at) / Fold change /veh PRB3 (11715151_x_at) / RFU TUBB4B (11761932_at) / Fold change /veh TUBB4B (11761932_at) / RFU CAPN14 (11732068_a_at) / Fold change /veh CAPN14 (11732068_a_at) / RFU TMCC2 (11721928_a_at) / Fold change /veh TMCC2 (11721928_a_at) / RFU IRGQ (11745062_a_at) / Fold change /veh IRGQ (11745062_a_at) / RFU FAM174B (11720279_a_at) / Fold change /veh FAM174B (11720279_a_at) / RFU TMPRSS4 (11748680_a_at) / Fold change /veh TMPRSS4 (11748680_a_at) / RFU FAM212B (11763350_a_at) / Fold change /veh FAM212B (11763350_a_at) / RFU PLEKHG5 (11743358_a_at) / Fold change /veh PLEKHG5 (11743358_a_at) / RFU ZSCAN30 (11745921_a_at) / Fold change /veh ZSCAN30 (11745921_a_at) / RFU CMKLR1 (11741424_a_at) / Fold change /veh CMKLR1 (11741424_a_at) / RFU LOC101060620 /// MAPK8IP1 (11723275_at) / Fold change /veh LOC101060620 /// MAPK8IP1 (11723275_at) / RFU SPTSSB (11747773_x_at) / Fold change /veh SPTSSB (11747773_x_at) / RFU PRSS12 (11739890_at) / Fold change /veh PRSS12 (11739890_at) / RFU BIN1 (11741810_x_at) / Fold change /veh BIN1 (11741810_x_at) / RFU WNT11 (11732464_a_at) / Fold change /veh WNT11 (11732464_a_at) / RFU C10orf10 (11716521_a_at) / Fold change /veh C10orf10 (11716521_a_at) / RFU C5orf56 (11738089_at) / Fold change /veh C5orf56 (11738089_at) / RFU CYB561 (11721691_x_at) / Fold change /veh CYB561 (11721691_x_at) / RFU ANKRD19P (11752326_a_at) / Fold change /veh ANKRD19P (11752326_a_at) / RFU OR2T12 /// OR2T33 /// OR2T8 (11738714_s_at) / Fold change /veh OR2T12 /// OR2T33 /// OR2T8 (11738714_s_at) / RFU VCAN (11748164_a_at) / Fold change /veh VCAN (11748164_a_at) / RFU JSRP1 (11732532_at) / Fold change /veh JSRP1 (11732532_at) / RFU KRTAP10-11 (11738290_x_at) / Fold change /veh KRTAP10-11 (11738290_x_at) / RFU MYO3A (11730013_a_at) / Fold change /veh MYO3A (11730013_a_at) / RFU EBF3 (11725865_a_at) / Fold change /veh EBF3 (11725865_a_at) / RFU CAMK2N1 (11719241_x_at) / Fold change /veh CAMK2N1 (11719241_x_at) / RFU C5orf56 (11738088_a_at) / Fold change /veh C5orf56 (11738088_a_at) / RFU OLFML3 (11715873_a_at) / Fold change /veh OLFML3 (11715873_a_at) / RFU LOC100653217 /// NTM (11731650_a_at) / Fold change /veh LOC100653217 /// NTM (11731650_a_at) / RFU MAPK11 (11762145_a_at) / Fold change /veh MAPK11 (11762145_a_at) / RFU FIZ1 (11724087_x_at) / Fold change /veh FIZ1 (11724087_x_at) / RFU OASL (11726364_x_at) / Fold change /veh OASL (11726364_x_at) / RFU SOX15 (11748057_x_at) / Fold change /veh SOX15 (11748057_x_at) / RFU CD79A (11719716_a_at) / Fold change /veh CD79A (11719716_a_at) / RFU HIST1H1D (11736915_at) / Fold change /veh HIST1H1D (11736915_at) / RFU CASKIN2 (11723855_a_at) / Fold change /veh CASKIN2 (11723855_a_at) / RFU LOC730098 (11760151_x_at) / Fold change /veh LOC730098 (11760151_x_at) / RFU OR4N2 (11742367_at) / Fold change /veh OR4N2 (11742367_at) / RFU PRRT2 (11749266_a_at) / Fold change /veh PRRT2 (11749266_a_at) / RFU SNX32 (11753110_a_at) / Fold change /veh SNX32 (11753110_a_at) / RFU CDHR5 (11726645_a_at) / Fold change /veh CDHR5 (11726645_a_at) / RFU RCAN1 (11760418_a_at) / Fold change /veh RCAN1 (11760418_a_at) / RFU FAM167A (11723789_a_at) / Fold change /veh FAM167A (11723789_a_at) / RFU FAM26E (11764081_at) / Fold change /veh FAM26E (11764081_at) / RFU ISYNA1 (11749810_s_at) / Fold change /veh ISYNA1 (11749810_s_at) / RFU ACY1 (11761880_at) / Fold change /veh ACY1 (11761880_at) / RFU 11764098_at / Fold change /veh 11764098_at / RFU SAMD14 (11745864_x_at) / Fold change /veh SAMD14 (11745864_x_at) / RFU NPB (11741838_a_at) / Fold change /veh NPB (11741838_a_at) / RFU TMPRSS6 (11731388_a_at) / Fold change /veh TMPRSS6 (11731388_a_at) / RFU KRTAP10-2 (11738614_at) / Fold change /veh KRTAP10-2 (11738614_at) / RFU ARHGAP8 /// PRR5-ARHGAP8 (11727945_x_at) / Fold change /veh ARHGAP8 /// PRR5-ARHGAP8 (11727945_x_at) / RFU KRTAP5-7 /// NADSYN1 (11734609_at) / Fold change /veh KRTAP5-7 /// NADSYN1 (11734609_at) / RFU RASL12 (11751679_a_at) / Fold change /veh RASL12 (11751679_a_at) / RFU CDKN2B (11736163_a_at) / Fold change /veh CDKN2B (11736163_a_at) / RFU PRF1 (11729649_at) / Fold change /veh PRF1 (11729649_at) / RFU, ZNF638 /// ZNF638-IT1 / Fold change vs veh, ZNF638 /// ZNF638-IT1 / RFU, PANK3 / Fold change vs veh, PANK3 / RFU, SH3YL1 / Fold change vs veh, SH3YL1 / RFU, ZEB2 / Fold change vs veh, ZEB2 / RFU, NRIP1 / Fold change vs veh, NRIP1 / RFU, PTTG1IP / Fold change vs veh, PTTG1IP / RFU, CAPN2 / Fold change vs veh, CAPN2 / RFU, MED14 / Fold change vs veh, MED14 / RFU, SNORA58 / Fold change vs veh, SNORA58 / RFU, C1orf63 / Fold change vs veh, C1orf63 / RFU, LRRFIP1 / Fold change vs veh, LRRFIP1 / RFU, NDUFAF7 / Fold change vs veh, NDUFAF7 / RFU, SLC12A2 / Fold change vs veh, SLC12A2 / RFU, IBTK / Fold change vs veh, IBTK / RFU, ESF1 / Fold change vs veh, ESF1 / Fold change vs veh, TMEM50B / RFU, TAOK1 / Fold change vs veh, TAOK1 / RFU, ACBD3 / Fold change vs veh, ACBD3 / RFU, TMA16 / Fold change vs veh, TMA16 / RFU, RWDD3 / Fold change vs veh, RWDD3 / RFU, BCAT1 / Fold change vs veh, BCAT1 / RFU, EDEM3 / Fold change vs veh, EDEM3 / RFU, TMEM33 / Fold change vs veh, TMEM33 / RFU, WDR75 / Fold change vs veh, WDR75 / RFU, AHCTF1 / Fold change vs veh, AHCTF1 / RFU, TFRC / Fold change vs veh, TFRC / RFU, ZDHHC17 / Fold change vs veh, ZDHHC17 / RFU, NOM1 / Fold change vs veh, NOM1 / RFU, ARL8B / Fold change vs veh, ARL8B / RFU, ZBTB11 / Fold change vs veh, ZBTB11 / RFU, TAMM41 / Fold change vs veh, TAMM41 / RFU, KIAA1704 /// LOC100996395 / Fold change vs veh, KIAA1704 /// LOC100996395 / RFU, ING1 / Fold change vs veh, ING1 / RFU, TRMT61B / Fold change vs veh, TRMT61B / RFU, FUBP3 / Fold change vs veh, FUBP3 / RFU, TP53 / Fold change vs veh, TP53 / RFU, TNKS2 / Fold change vs veh, TNKS2 / RFU, ZFP14 / Fold change vs veh, ZFP14 / RFU, ACTR2 / Fold change vs veh, ACTR2 / RFU, PPP3R1 / Fold change vs veh, PPP3R1 / RFU, PIK3R1 / Fold change vs veh, PIK3R1 / RFU, HNRNPA1 / Fold change vs veh, HNRNPA1 / RFU, RNF170 / Fold change vs veh, RNF170 / RFU, ZNF28 / Fold change vs veh, ZNF28 / RFU, RNGTT / Fold change vs veh, RNGTT / RFU, OGT / Fold change vs veh, OGT / RFU, BRD1 / Fold change vs veh, BRD1 / RFU, MARS / Fold change vs veh, MARS / RFU, ZNF655 / Fold change vs veh, ZNF655 / RFU, FAHD1 / Fold change vs veh, FAHD1 / RFU, BDP1 / Fold change vs veh, BDP1 / RFU, LRRCC1 / Fold change vs veh, LRRCC1 / RFU, ARID1A / Fold change vs veh, ARID1A / RFU, ZNF146 / Fold change vs veh, ZNF146 / RFU, ZNF330 / Fold change vs veh, ZNF330 / RFU, GPN3 / Fold change vs veh, GPN3 / RFU, C9orf123 / Fold change vs veh, C9orf123 / RFU, N4BP2L2 / Fold change vs veh, N4BP2L2 / RFU, ARFIP1 / Fold change vs veh, ARFIP1 / RFU, FAM179B / Fold change vs veh, FAM179B / RFU, BCL10 / Fold change vs veh, BCL10 / RFU, UHRF1BP1L / Fold change vs veh, UHRF1BP1L / RFU, BET1 / Fold change vs veh, BET1 / RFU, CNOT2 / Fold change vs veh, CNOT2 / RFU, ZNF268 / Fold change vs veh, ZNF268 / Fold change vs veh, ZNF507 / RFU, DGCR2 / Fold change vs veh, DGCR2 / RFU, WDSUB1 / Fold change vs veh, WDSUB1 / Fold change vs veh, HSP90B1 /// MIR3652 / RFU, ADSS / Fold change vs veh, ADSS / RFU, GK / Fold change vs veh, GK / RFU, ZNF148 / Fold change vs veh, ZNF148 / RFU, TAF9 / Fold change vs veh, TAF9 / RFU, SLC1A5 / Fold change vs veh, SLC1A5 / RFU, SLMO2 / Fold change vs veh, SLMO2 / RFU, ABCC4 / Fold change vs veh, ABCC4 / RFU, LOC101060439 /// RAP1B / Fold change vs veh, LOC101060439 /// RAP1B / RFU, RFX7 / Fold change vs veh, RFX7 / RFU, GTPBP10 / Fold change vs veh, GTPBP10 / RFU, CNEP1R1 / Fold change vs veh, CNEP1R1 / RFU, BIVM-ERCC5 /// ERCC5 / Fold change vs veh, BIVM-ERCC5 /// ERCC5 / RFU, ILF3 / Fold change vs veh, ILF3 / RFU 11762660_at / Fold change /veh 11762660_at / RFU VCAN (11757783_s_at) / Fold change /veh VCAN (11757783_s_at) / RFU DDX43 (11728927_at) / Fold change /veh DDX43 (11728927_at) / RFU KRT8 (11758188_x_at) / Fold change /veh KRT8 (11758188_x_at) / RFU NKD1 (11759106_at) / Fold change /veh NKD1 (11759106_at) / RFU SRD5A1 (11742802_a_at) / Fold change /veh SRD5A1 (11742802_a_at) / RFU TPSAB1 /// TPSB2 (11721975_s_at) / Fold change /veh TPSAB1 /// TPSB2 (11721975_s_at) / RFU GSTM3 (11746129_a_at) / Fold change /veh GSTM3 (11746129_a_at) / RFU IL23R (11737362_x_at) / Fold change /veh IL23R (11737362_x_at) / RFU TMEM51 (11727254_a_at) / Fold change /veh TMEM51 (11727254_a_at) / RFU PIWIL2 (11732686_x_at) / Fold change /veh PIWIL2 (11732686_x_at) / RFU ORM1 (11744905_x_at) / Fold change /veh ORM1 (11744905_x_at) / RFU CCDC152 (11743942_at) / Fold change /veh CCDC152 (11743942_at) / RFU ECM1 (11717891_a_at) / Fold change /veh ECM1 (11717891_a_at) / RFU IL23R (11748794_a_at) / Fold change /veh IL23R (11748794_a_at) / RFU TNFAIP8L3 (11732012_x_at) / Fold change /veh TNFAIP8L3 (11732012_x_at) / RFU MBOAT4 (11741988_at) / Fold change /veh MBOAT4 (11741988_at) / RFU 11764193_at / Fold change /veh 11764193_at / RFU TMEM53 (11763286_at) / Fold change /veh TMEM53 (11763286_at) / RFU MAGEB2 (11727129_at) / Fold change /veh MAGEB2 (11727129_at) / RFU TMEM200A (11744735_a_at) / Fold change /veh TMEM200A (11744735_a_at) / RFU CCDC152 (11751479_a_at) / Fold change /veh CCDC152 (11751479_a_at) / RFU FAM211A (11726209_a_at) / Fold change /veh FAM211A (11726209_a_at) / RFU RGS16 (11746705_a_at) / Fold change /veh RGS16 (11746705_a_at) / RFU VCAN (11755009_s_at) / Fold change /veh VCAN (11755009_s_at) / RFU RHOB (11743442_s_at) / Fold change /veh RHOB (11743442_s_at) / RFU RGS16 (11720943_a_at) / Fold change /veh RGS16 (11720943_a_at) / RFU RGS16 (11720944_at) / Fold change /veh RGS16 (11720944_at) / RFU, VPS4B / Fold change vs veh, VPS4B / RFU, CREB1 / Fold change vs veh, CREB1 / RFU, DNAJC13 / Fold change vs veh, DNAJC13 / RFU, GNAQ / Fold change vs veh, GNAQ / RFU, CDK5R1 / Fold change vs veh, CDK5R1 / RFU, ZRANB3 / Fold change vs veh, ZRANB3 / RFU, CUL4A / Fold change vs veh, CUL4A / RFU, CCNY / Fold change vs veh, CCNY / RFU, UFL1 / Fold change vs veh, UFL1 / RFU, COG3 / Fold change vs veh, COG3 / RFU, DIAPH2 / Fold change vs veh, DIAPH2 / RFU, SKA2 / Fold change vs veh, SKA2 / RFU, AFF3 / Fold change vs veh, AFF3 / RFU, LMF1 / Fold change vs veh, LMF1 / RFU, IPO11 / Fold change vs veh, IPO11 / RFU, DFFB / Fold change vs veh, DFFB / RFU, FOXP1 / Fold change vs veh, FOXP1 / RFU, CARD8 / Fold change vs veh, CARD8 / RFU, STRN3 / Fold change vs veh, STRN3 / RFU, ADK / Fold change vs veh, ADK / RFU, RASSF2 / Fold change vs veh, RASSF2 / RFU, WIPF1 / Fold change vs veh, WIPF1 / RFU, LARP1B / Fold change vs veh, LARP1B / RFU, RASA1 / Fold change vs veh, RASA1 / RFU, RB1 / Fold change vs veh, RB1 / RFU, PPFIA1 / Fold change vs veh, PPFIA1 / RFU, MAT2A / Fold change vs veh, MAT2A / RFU, CCT5 / Fold change vs veh, CCT5 / RFU, WDR92 / Fold change vs veh, WDR92 / RFU, CUX1 / Fold change vs veh, CUX1 / RFU, TTC7A / Fold change vs veh, TTC7A / RFU, TMEM135 / Fold change vs veh, TMEM135 / RFU, DEPTOR / Fold change vs veh, DEPTOR / RFU, CPM / Fold change vs veh, CPM / RFU, DNAJB6 / Fold change vs veh, DNAJB6 / RFU, CACNA2D3 / Fold change vs veh, CACNA2D3 / RFU, DTX4 / Fold change vs veh, DTX4 / RFU, TFCP2 / Fold change vs veh, TFCP2 / RFU, GMCL1 /// GMCL1P1 / Fold change vs veh, GMCL1 /// GMCL1P1 / RFU, AEBP2 / Fold change vs veh, AEBP2 / RFU, SNHG1 /// SNORD22 /// SNORD25 /// SNORD26 /// SNORD27 /// SNORD28 /// SNORD29 /// SNORD31 / Fold change vs veh, SNHG1 /// SNORD22 /// SNORD25 /// SNORD26 /// SNORD27 /// SNORD28 /// SNORD29 /// SNORD31 / Fold change (Aza/veh), C12orf56 (ProbeSet 11735607_a_at) / Fold change (ACY-1035/veh), C12orf56 (ProbeSet 11735607_a_at) / Fold change (Aza/veh), FGFR1OP (ProbeSet 11751329_s_at) / Fold change (ACY-1035/veh), FGFR1OP (ProbeSet 11751329_s_at) / Fold change (Aza/veh), VPS36 (ProbeSet 11739960_a_at) / Fold change (ACY-1035/veh), VPS36 (ProbeSet 11739960_a_at) / RFU SYPL1 (11715823_x_at) / Fold change /veh SYPL1 (11715823_x_at) / RFU IGFBP7 (11715501_s_at) / Fold change /veh IGFBP7 (11715501_s_at) / RFU REEP3 (11722064_at) / Fold change /veh REEP3 (11722064_at) / RFU IGLL1 (11728026_x_at) / Fold change /veh IGLL1 (11728026_x_at): dose or concentration left out as unconfirmed
# Conditions: ProbeSet 11732306_x_at; LIST D
smiles,measurement,value
Nc1ncn([C@@H]2O[C@H](CO)[C@@H](O)[C@H]2O)c(=O)n1 [azacitidine],"RFU, CREB1",273.21 RFU
